Columns and labels:
[1] = Toxicity on rat primary hepatocytes (ATP detection); assay type: cell-based; conditions: SD, ATP detection reagent
Procedure: Experimental method: Liver lobes of SD rat were placed in sterilized plate, added with a suitable amount of liver cell cleaning solution (precooled at 4° C.), the liver was shredded and fibrous connective tissues were removed to form a liver cell suspension, screened with 200 mesh screen and placed in 50 ml centrifuge tube, centrifuged at 500 rpm for 1-2 min; the supernatant was removed, the precipitate was added with 20-30 ml of RPMI […] (precooled at 4° C.) and washed 3 times; isovolumetric liver cell suspension was taken and suspended in Percoll separating solution I, mixed by turning upside down, centrifuged at 4° C. and 800 rpm for 10 min, the supernatant was discarded, the liver cells were washed with PBS once (800 rpm, 5 min). The liver cell precipitate was added into liver cell culture fluid, resuspended and diluted to 10 ml, and a suitable amount thereof was taken for counting and survival rate was determined by using 0.4% trypan blue. The liver cells with survival rate of 90% or more were inoculated in a density of 2×10^3 on 96-well plate, 100 μl of RPMI 1640 culture medium was added to each well, culture was performed at 37° C., 5% CO2 for 24 h. The compounds were diluted with DMSO to desired concentrations and added to each well in an amount of 1 μl (final compound concentrations were usually initiated from 1000 μM, 10× gradient dilution, 6 gradients), and blank control was added with 1 μl of DMSO.
After the cells were cultured at 37° C., 5% CO2 for 24 h, 100 μl of ATP detection reagent was added, incubated under shock for 15 min. fluorescence values of wells were read by ELIASA. Cell survival rates for each example compounds were calculated, and then GIs values (concentrations of added compounds at which growth of 50% cells was inhibited) were calculated.

[2] = system: tumor cell A549; assay: Tumor cell inhibition, Cell Titer-Glo cell viability; assay type: cell-based; conditions: Homo sapiens, A549 cells, 72 h
Procedure: The activities of example compounds to tumor cell A549 were evaluated.
(§1) Experimental materials: DMEM high-glucose cell culture media (Hyclone Company), fetal calf serum (FBS) (Gibco Company), penicillin and streptomycin were purchased from North China Pharmaceutical Co., Ltd, phosphate buffer saline (PBS) was purchased from Gibco Company, Cell Titer-Glo® cell viability detection reagent was purchased from Promega Company, pancreatin and dimethylsulfoxide (DMSO) were products of Sigma Company. A549 cell line (human lung adenocarcinoma cell line) was purchased from ATCC.
(§2) The cells were inoculated on a 96-well plate with white wall and penetrative bottom (Costar) in amount of 5000 cells per well, cultured at condition of 37° C., 5% CO2 for 24 h. The compounds to be tested were dissolved with DMSO and diluted to 100 mM, to obtain mother liquids of the compounds.
(§3) DMEM culture solution containing 2% FBS was used to diluted the compounds, in which concentration gradients were 3, and concentration range was 100 μM to 3 nM. The compounds in various dilution degrees were added to the cultured cells on the 96-well plate, 100 μl per well. Culture was performed at 37° C., CO2 for 72 h, supernatant was discarded, and cell viability detection test was performed.
(§4) AfterCell Titer-Glo® reaction buffer solution was mixed with isometric substrate, the mixture was added to 96-well plate, 100 μl per well. Cell lysis was induced by horizontally shaking for 4 min. Reaction signal was stabilized by balancing at room temperature for 15 min. Chemiluminescence units in each well of the 96-well plate were detected by using chemiluminescence detector.
(§5) Inhibition rates at different dilution degrees of each compound were calculated according to chemiluminescence value of each well, and Origin 8.0 software was used for S-type curve fitting of each compound, and for calculating EC50 value.

[3] = system: multi-drug resistant tumor cell line MES-SA; assay: Inhibition of drug-resistant tumor cell line, Cell Titer-Glo cell viability; therapeutic index against MRC5 cells; assay type: cell-based; conditions: Homo sapiens, 72 h
Procedure: The activity of example compounds to multi-drug resistant tumor cell line MES-SA was evaluated.
as §1, with “MES-SA” for “A549”, “uterine sarcoma” for “lung adenocarcinoma”, “ATCC. MRC5 cell (human embryonic lung fibroblast) was purchased from ATCC.” for “ATCC.”
as §2
as §3, with “0.046 μM.” for “3 nM.”
as §4
as §5, with “value. The ratio of EC50 value of compound for MRC5 cell to EC50 value of compound for MES-SA cell was used as therapeutic index for the compound.” for “value.”

[4] = cited from earlier work
[5] = Solubility test (Chinese Pharmacopoeia 2010, Part II); assay type: physicochemical; conditions: water, thermodynamic from solid
[6] = target: mTORC1 (Homo sapiens, UniProt P42345); assay: Inhibition of mTORC1 in A549 cells: phosphorylation of Thr389 of S6K1 by Western blot; assay type: cell-based; conditions: compound 20 μM with insulin 167 nM, 2 h, semi-quantitative
Excerpt: Molecular mechanism of action of the example compounds in tumor cell A549.
Experimental materials: DMEM high-glucose cell culture media (Hyclone Company), fetal calf serum (FBS) (Gibco Company), penicillin and streptomycin were purchased from North China Pharmaceutical Co., Ltd, phosphate buffer saline (PBS) was purchased from Gibco Company, pancreatic enzyme and dimethylsulfoxide (DMSO) were products of Sigma Company. A549 cell line (human lung adenocarcinoma cell line) was purchased from ATCC. Mouse anti-human p-p70S6K(T389) monoclonal antibody was purchased from Cell Signaling Technology Company, mouse anti-human p70S6K monoclonal antibody was purchased from Cell Signaling Technology Company, mouse anti-human p-AKT (S473) monoclonal antibody was purchased from Cell Signaling Technology Company, mouse anti-human AKTmonoclonal antibody was purchased from Cell Signaling Technology Company. Horseradish peroxidase-labeled goat anti-mouse, goat anti-mouse monoclonal antibodies were purchased from Cell Signaling Technology Company. […]

[7] = system: renal cell carcinoma (RCC); conditions: early RCC patients; cited from earlier work
[8] = system: T cell proliferation; conditions: read-out: Median inhibitory concentration (IC50), T cell proliferation; cited from earlier work
[9] = system: metastatic soft-tissue or bone sarcomas; conditions: phase-III; cited from earlier work

Row | SMILES | IC50 [2] [µM] | melting point [°C] | GI50 at 24 h [1] [µM] | IC50 [3] [µM] | further results
1 | CO[C@H]1C[C@@H]2CC[C@@H](C)[C@@](O)(O2)C(=O)C(=O)N2CCCC[C@H]2C(=O)O[C@H]([C@H](C)C[C@@H]2CC[C@@H](OCCO)[C@H](OC)C2)CC(=O)[C@H](C)/C=C(\C)[C@@H](O)[C@@H](OC)C(=O)[C@H](C)C[C@H](C)/C=C/C=C/C=C/1C [Everolimus, 42-O-(2-hydroxyethyl)-rapamycin] | – | – | – | – | Half-life ([4]; in human body): 16 to 19 h; Oral bioavailability ([4]; oral): 15%-30%
2 | CO[C@H]1C[C@@H]2CC[C@@H](C)[C@@](O)(O2)C(=O)C(=O)N2CCCC[C@H]2C(=O)O[C@H]([C@H](C)C[C@@H]2CC[C@@H](OC(=O)C[n+]3cccc(O)c3)[C@H](OC)C2)CC(=O)[C@H](C)/C=C(\C)[C@@H](OC(=O)C[n+]2cccc(O)c2)[C@@H](OC)C(=O)[C@H](C)C[C@H](C)/C=C/C=C/C=C/1C.[Br-].[Br-] [Example 8, 31,42-O-carbonylmethyl-(3-hydroxy-pyridine bromide salt-1-yl)-rapamycin] | 46 | 120 to 124 | – | < 0.046 | solubility [5]: 100 µg/mL
3 | CO[C@H]1C[C@@H]2CC[C@@H](C)[C@@](O)(O2)C(=O)C(=O)N2CCCC[C@H]2C(=O)O[C@H]([C@H](C)C[C@@H]2CC[C@@H](O)[C@H](OC)C2)CC(=O)[C@H](C)/C=C(\C)[C@@H](O)[C@@H](OC)C(=O)[C@H](C)C[C@H](C)/C=C/C=C/C=C/1C [Rapamycin, reference compound] | 49.4 | – | 24.8 | < 0.046 | Inhibition of mTORC1 (phosphorylation of Thr389 of S6K1) [6]: could only inhibit mTORC1
4 | CO[C@H]1C[C@@H]2CC[C@@H](C)[C@@](O)(O2)C(=O)C(=O)N2CCCC[C@H]2C(=O)O[C@H]([C@H](C)C[C@@H]2CC[C@@H](OC(=O)C(C)(CO)CO)[C@H](OC)C2)CC(=O)[C@H](C)/C=C(\C)[C@@H](O)[C@@H](OC)C(=O)[C@H](C)C[C@H](C)/C=C/C=C/C=C/1C [Temsirolimus] | – | – | – | – | Extension of median survival time [7]: 3-6 months; IC50 [8]: 0.0008 µM
5 | CO[C@H]1C[C@@H]2CC[C@@H](C)[C@@](O)(O2)C(=O)C(=O)N2CCCC[C@H]2C(=O)O[C@H]([C@H](C)C[C@@H]2CC[C@@H](OP(C)(C)=O)[C@H](OC)C2)CC(=O)[C@H](C)/C=C(\C)[C@@H](O)[C@@H](OC)C(=O)[C@H](C)C[C@H](C)/C=C/C=C/C=C/1C [Ridaforolimus] | – | – | – | – | Mortality risk reduction in comparison with placebo group [9]: 28%

The next lines start with results.

Row | IC50 [2] [µM] | melting point [°C] | SMILES | GI50 at 24 h [1] [µM] | IC50 [3] [µM] | further results
6 | 44.8 | 157 to 160 | CO[C@H]1C[C@@H]2CC[C@@H](C)[C@@](O)(O2)C(=O)C(=O)N2CCCC[C@H]2C(=O)O[C@H]([C@H](C)C[C@@H]2CC[C@@H](OC(=O)C[n+]3ccc(C)cc3)[C@H](OC)C2)CC(=O)[C@H](C)/C=C(\C)[C@@H](O)[C@@H](OC)C(=O)[C@H](C)C[C@H](C)/C=C/C=C/C=C/1C.[Br-] [Example 13, 42-O-carbonylmethyl-(4-methyl-pyridine bromide salt-1-yl)-rapamycin] | 44.9 | < 0.046 | –
7 | 52.8 | 138 to 140 | CO[C@H]1C[C@@H]2CC[C@@H](C)[C@@](O)(O2)C(=O)C(=O)N2CCCC[C@H]2C(=O)O[C@H]([C@H](C)C[C@@H]2CC[C@@H](OC(=O)C[n+]3cccc(C)c3)[C@H](OC)C2)CC(=O)[C@H](C)/C=C(\C)[C@@H](O)[C@@H](OC)C(=O)[C@H](C)C[C@H](C)/C=C/C=C/C=C/1C.[Br-] [Example 11, 42-O-carbonylmethyl-(3-methyl-pyridine bromide salt-1-yl)-rapamycin] | 71.8 | < 0.046 | –
8 | 40.8 | 145 to 148 | CO[C@H]1C[C@@H]2CC[C@@H](C)[C@@](O)(O2)C(=O)C(=O)N2CCCC[C@H]2C(=O)O[C@H]([C@H](C)C[C@@H]2CC[C@@H](O)[C@H](OC)C2)CC(=O)[C@H](C)/C=C(\C)[C@@H](OC(=O)C[n+]2ccc(C)cc2)[C@@H](OC)C(=O)[C@H](C)C[C@H](C)/C=C/C=C/C=C/1C.[Br-] [Example 17, 31-O-carbonylmethyl-(4-methyl-pyridine bromide salt-1-yl)-rapamycin] | 54.3 | < 0.046 | –
